Laboratory results from ChEMBL document CHEMBL1126075, “Chemistry and anti-HIV properties of 2'-fluoro-2',3'-dideoxyarabinofuranosylpyrimidines” (J Med Chem, 1992).

Columns and labels:
[1] = Partition coefficient (logP); type: physicochemical; conditions: octanol/water
ATH-8 cell line [2] = test: Percent protection of ATH8 cells from HIV-induced cytopathic effects at a concentration of 5 uM.; type: functional, Homo sapiens
ATH-8 cell line [3] = test: Percent protection of ATH8 cells from HIV-induced cytopathic effects at a concentration of 0.2 uM.; type: functional, Homo sapiens
ATH-8 cell line [4] = test: Percent protection of ATH8 cells from HIV-induced cytopathic effects at a concentration of 1 uM.; type: functional, Homo sapiens
ATH-8 cell line [5] = test: Percent cytotoxicity against ATH8 cells at a concentration of 0.2 uM.; type: functional; conditions: Homo sapiens
ATH-8 cell line [6] = test: Percent cytotoxicity against ATH8 cells at a concentration of 0.5 uM.; type: functional; conditions: Homo sapiens
ATH-8 cell line [7] = test: Percent cytotoxicity against ATH8 cells at a concentration of 1 uM.; type: functional; conditions: Homo sapiens
ATH-8 cell line [8] = test: Percent cytotoxicity against ATH8 cells at a concentration of 5 uM.; type: functional; conditions: Homo sapiens
CCRF-CEM = test: Effect on HIV-induced cytopathogenesis in CEM cells.; type: functional, cell-based; conditions: Homo sapiens
[9] = Therapeutic index (IC50/EC50) was determined; conditions: read-out: TI
ATH-8 cell line [10] = test: Percent protection of ATH8 cells from HIV-induced cytopathic effects at a concentration of 0.5 uM.; type: functional, Homo sapiens

Row | logP [1] | SMILES | Protection (ATH-8 cell line [2]) | Protection (ATH-8 cell line [3]) | Protection (ATH-8 cell line [4]) | cytotoxicity at 0.2 µM (ATH-8 cell line [5]) | cytotoxicity at 0.5 µM (ATH-8 cell line [6]) | cytotoxicity at 1 µM (ATH-8 cell line [7]) | cytotoxicity at 5 µM (ATH-8 cell line [8]) | EC50 (CCRF-CEM) | IC50 (CCRF-CEM) | selectivity ratio [9] | Protection (ATH-8 cell line [10])
1 | -1.57 | Nc1ccn([C@H]2C=C[C@@H](CO)O2)c(=O)n1 |  |  |  |  |  |  |  |  |  |  | 
2 | -1 | O=c1ccn(C2CCC(CO)O2)c(=O)[nH]1 (stereo not given) |  |  |  |  |  |  |  |  |  |  | 
3 | -1.09 | Nc1nc(=O)n([C@@H]2CC[C@H](CO)O2)cc1F | 99% | 71% | 100% | 0% | 0% | 1% | 4% | 0.1 µM | > 40 µM | > 400 | 96%
4 | -0.28 | O=c1[nH]c(=O)n(C2OC(CO)CC2F)cc1Cl (stereo not given) |  |  |  |  |  |  |  |  |  |  | 
5 | -1.94 | O=c1ccn([C@@H]2O[C@H](CO)[C@@H](O)[C@H]2O)c(=O)[nH]1 [URIDINE] |  |  |  |  |  |  |  |  |  |  | 

The remaining lines, values behind:

Row | SMILES | logP [1] | Protection (ATH-8 cell line [2]) | Protection (ATH-8 cell line [3]) | Protection (ATH-8 cell line [4]) | cytotoxicity at 0.2 µM (ATH-8 cell line [5]) | cytotoxicity at 0.5 µM (ATH-8 cell line [6]) | cytotoxicity at 1 µM (ATH-8 cell line [7]) | cytotoxicity at 5 µM (ATH-8 cell line [8]) | EC50 (CCRF-CEM) | IC50 (CCRF-CEM) | selectivity ratio [9] | Protection (ATH-8 cell line [10])
6 | Cc1cn([C@@H]2O[C@H](CO)C[C@H]2F)c(=O)[nH]c1=O | -0.44 |  |  |  |  |  |  |  |  |  |  | 
7 | Nc1ccn([C@@H]2O[C@H](CO)C[C@@H]2F)c(=O)n1 | -1.18 | 53% | 3% | 56% | 0% | 8% | 4% | 1% | 1.1 µM | 43 µM | 39 | 25%
8 | Nc1nc(=O)n(C2OC(CO)CC2F)cc1Cl (stereo not given) | -0.46 |  |  |  |  |  |  |  |  |  |  | 
9 | O=c1[nH]c(=O)n(C2OC(CO)CC2F)cc1F (stereo not given) | -0.72 |  |  |  |  |  |  |  |  |  |  | 
10 | Nc1nc(=O)n(C2OC(CO)CC2F)cc1F (stereo not given) | -0.92 | 73% | 0% | 7% | 0% | 0% | 8% | 0% | 57.7 µM | > 580 µM | > 10 | 8%
11 | O=c1ccn(C2OC(CO)CC2F)c(=O)[nH]1 (stereo not given) | -0.87 |  |  |  |  |  |  |  |  |  |  | 
12 | Nc1ccn([C@H]2CC[C@@H](CO)O2)c(=O)n1 [ZALCITABINE] |  | 88% | 93% | 100% | 6% | 0% | 9% | 1% | 0.3 µM | 120 µM | 380 | 100%
